Laboratory results reported in patent publication US7943314B2, “Methods of detecting viability-associated molecules” (ISEAO Technologies Limited, priority 2005, dated 2011).

Columns and labels:
[1] = test system: methicillin resistant strain of Staphylococcus aureus (MRSA clinical isolate); assay: ATP assay (ligase/quantitative PCR) of Staphylococcus aureus susceptibility to antibiotic, MRSA strain; format: cell-based; details: grown 3 hours at 37° C. with 60 μg/ml oxacillin; FIG. 8
Method: (§1) • 1. A bacterial culture of a clinical isolate of a MRSA and antibiotic sensitive strain of Staphylococcus aureus strain were prepared in Nutrient media (Lab M, UK) and grown to stationary phase at 37° C. overnight. • 2. The following day, a hundred-fold dilution of the bacterial cultures were prepared in the same media with 1 μl alkaline phosphatase (10 units, New England Biolabs) with and without 60 μg/ml oxacillin and grown for 3 hours at 37° C. • 3. For the quantitation of ATP, 10 μl of each 0 (10 μl culture removed and treated at time 0 min) and 3 hour culture were added to 2.5 μl of 1M NaOH, 1% (v/v) Triton X-100 and incubated for 5 min before neutralisation with 25 μl of 0.1M HCL. 4. 100 μl of ligase buffer was then added followed by 5 μl ligase/DNA substrate paramagnetic beads (prepared as described in Example 2 above). • 5. After incubation at 8° C. for 60 min, the beads were collected using a magnet and resuspended in 20 μl ligase buffer. • 6. After heating at 95° C. for 5 min, 2 μl of the eluted ligated product was quantitated by PCR. • 7. The quantitative PCR was performed as described previously. Results
There is growth and an increase of ATP observed after 3 hr in the absence of antibiotic compared to the zero time point. […] The organism is not sensitive to this antibiotic and continues to grow and produce ATP in the presence of this antibiotic.

[2] = test system: methicillin sensitive strain of Staphylococcus aureus (clinical isolate); assay: ATP assay (ligase/quantitative PCR) of Staphylococcus aureus susceptibility to antibiotic, sensitive strain; format: cell-based; details: grown 3 hours at 37° C. with 60 μg/ml oxacillin; FIG. 7
Method: as §1
There is growth and an increase of ATP observed after 3 hr compared to the zero time point. This growth and increase in ATP is not observed when the organism is grown in the presence of oxacillin. […]

Q: Which results are given for `Cc1onc(-c2ccccc2)c1C(=O)N[C@@H]1C(=O)N2[C@@H]1SC(C)(C)[C@@H]2C(=O)O` [oxacillin]?
A: growth and increase in ATP after 3 hr compared to the zero time point [1]: reduced but not abrogated; growth and increase in ATP after 3 hr compared to the zero time point [2]: not observed
